# Experiments:
# Format in all cases: cell-based
# [1] = test system: Methylococcus capsulatus strain MC; assay: Stimulation of propylene epoxidation in cell suspensions; conditions: propylene alone
# Experimental: (§1) The pH of the nutrient medium was adjusted to 7.0 by the addition of acid or base and 50 ml aliquots of the nutrient medium was charged into a plurality of 300 ml shake flasks. The shake flasks were inoculated with an inoculating loop of cells from an agar plate containing homogeneous colonies of the microorganisms on the plate (the purity of the isolates were confirmed by microscopic examination). The isolates had been maintained on agar plates under an atmosphere of methane and air having a 1:1 v/v gas ratio which had been transferred every two weeks. The gaseous phase of the inoculated flasks was then replaced with a gas mixture comprised of methane and air having a ratio of 1:1 on a v/v basis. The inoculated flasks were sealed air tight and were incubated on a rotary shaker of orbital radius 2.5 cm at 250 rpm and at 30° C. for two days until the turbidity in the medium had developed.
# (§2) The cells were harvested by centrifugation at 10,000 ×g at 4° C. for 30 minutes. The cell pellet was washed twice with a 0.15 M phosphate buffer at a pH of 7.0 (containing 0.002 M MgCl2). The washed cells were then suspended in a 0.15 M phosphate buffer at pH 7.0.
# (§3) A 0.5 ml aliquot of each washed cell suspension (2 mg cells) was put into 10 ml vials at 4° C. which were sealed with a rubber cap. The gaseous phase of the vials was removed with vacuum and then was replaced with a gas mixture of alkene and oxygen at a 1:1 v/v ratio. It was then incubated at 30° C. on a rotary shaker at 300 rpm. Samples of product (3 μl) were withdrawn periodically with a microsyringe and the products were analyzed by gas chromatography (ionization flame detector column).
# (§4) Several experiments were carried out using a plurality of compounds capable of generating the necessary reducing power (NADH2 or NADPH2) required for the epoxidation of alkenes or dienes. These experiments were carried out using cell suspensions of methane grown methylotrophs using the procedure as described in Example 1 except that a stimulator compound was added to the reaction medium.
# [2] = test system: Methylosinus trichosporium OB3b (NRRL B-11,196); assay: Stoichiometry of the epoxidation of propylene by a cell-suspension; conditions: 3.6 μmoles propylene; 3.1 mg protein; 3 min.
# Experimental: As a comparison the stoichiometry of the epoxidation of propylene by a cell-suspension of Methylosinus trichosporium OB3b (NRRL B-11,196) was determined as follows. The reaction mixture (3.0 ml.) contained 0.05 M sodium phosphate buffer, pH 7.0 and 3.6 μmoles of propylene. The reaction was initiated by the injection of 0.1 ml. of cell-suspension (3.1 mg protein). A correction was made for the endogenous consumption of oxygen. The amount of oxygen consumed during the reaction (3 min.) was determined polarographically with a Clark oxygen electrode. The propylene consumed and the propylene oxide formed was estimated by gas chromatography. The propylene consumed was 0.29 μmoles, the oxygen consumed was 0.30 μmoles and the propylene oxide formed was 0.28 μmoles.
# [3] = test system: Methylobacter capsulatus Y (NRRL B-11,201); assay: Methane hydroxylation and propylene epoxidation by washed cell suspensions
# Experimental: as §1, §2
# as §3, with “The gaseous phase of the vials was removed with vacuum and then was replaced with a gas mixture of alkene and oxygen at a 1:1 v/v ratio.” left out
# Several experiments were carried out using a plurality of compounds capable of generating the necessary reducing power (NADH2 or NADPH2) required for the epoxidation of alkenes or dienes. […]
# [4] = test system: Methylobacterium organophilum (CRL 26, NRRL B-11,222); assay: Epoxidation/hydroxylation by washed cell suspensions; conditions: propylene alone
# Experimental: as §1, §2, §3, §4
# [5] = test system: Methylococcus capsulatus (CRL M1, NRRL B-11,219); assay: Oxidation/epoxidation by washed cell suspensions; conditions: propylene alone (control); 3 Hr
# Experimental: as §1, with “The shake flasks were inoculated with an inoculating loop of cells from an agar plate containing homogeneous colonies of the microorganisms on the plate (the purity of the isolates were confirmed by microscopic examination).” left out
# as §2, §3
# The experimental procedure described in Example 1 was used to prepare washed cell suspensions of methane-grown microorganisms and the use of the same to oxidize or epoxidize the branched chain alkanes, alkenes and dienes.
smiles,measurement,setting,value
C=CC [Propylene],Rate of Product Formation (Propylene Oxide),[1],3.5 nmoles/hr/mg protein
same,Propylene Oxide Formed,[2],0.28 µmol
same,oxygen consumed,[2],0.30 µmol
same,propylene consumed,[2],0.29 µmol
same,"Conversion rate, propylene to propylene oxide","[3]; methane-grown washed cells, 30° C.",1.5 μmole/hr/mg protein
same,Rate of Product Formation (Propylene Oxide),[3]; propylene alone,2 nmoles/hr/mg protein
same,Rate of Product Formation (Propylene Oxide),[4],10 nmoles/hr/mg protein
same,"Epoxidation Rate, Propylene oxide",[5],3.9 μmoles/0.5 ml

# Source: US4368267A, “Epoxidation of lower α-olefins” (priority 1980, dated 1983)
